Columns and labels:
[1] = tested on: neurons of the infragranular layer of the primary somatosensory cortex of the rat; assay: Classical neurophysiological measures of somatosensory responses (sensory mapping, magnitude and latency of neural responses to touch stimuli) before and after drug; type: in vivo
[2] = tested on: ensemble of neurons in the deep layers of the forelimb rat primary somatosensory cortex; assay: PSTH-based classification of stimulus location from single-trial responses of neuron ensembles (information representation); type: in vivo; conditions: for classification performance (bits of information) after drug compared to saline: one ensemble of neurons, touch-stimuli to contralateral body, every bin size tested, FIGS. 1A and 1B

| SMILES | effectiveness of the low dose ([1]; MCPP 0.075 (low) mg/kg, intraperitoneal (IP), dissolved in saline) | classification performance (bits of information) after drug compared to saline [2] | effectiveness of the medium dose ([1]; FLU 10 (medium) mg/kg, IP injection, dissolved in saline) | number of spikes per stimulus after drug ([1]; fluoxetine 10 mg/kg, two rats, 0.67 spikes per stimulus before drug, significant increase, p<0.001) [spikes per stimulus] | latency of the response after drug ([1]; fluoxetine 10 mg/kg, two rats, 20 msec before drug, decrease did not reach significance (p=0.11)) [ms] | amount of information represented by the ensemble after administration ([2]; binsize from 40 ms (spike-count) to 1 ms (spike-timing), single-trial discrimination of stimulus location) |
| --- | --- | --- | --- | --- | --- | --- |
| Clc1cccc(N2CCNCC2)c1 [MCPP, meta-chlorophenylpiperazine] | effective | increase for every bin size tested | – | – | – | – |
| CNCCC(Oc1ccc(C(F)(F)F)cc1)c1ccccc1 (stereo not shown) [fluoxetine] | – | increased for every bin size tested | effective | 1.05 | 17.5 | greater |
